Laboratory results from PubChem BioAssay (NCI).
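How tested: cells in 96-well plates exposed to compound for 48 hours at five concentrations. GI50: concentration for 50% inhibition of growth. At the TGI there is no net growth.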

Experiments:
Experiment in all cases: DTP human tumour cell line panel, 48 h
786-0 renal = test system: 786-0 renal
A498 renal = test system: A498 renal
A549 NSCLC = test system: A549 NSCLC
ACHN renal = test system: ACHN renal
BT-549 breast = test system: BT-549 breast
CAKI-1 renal = test system: CAKI-1 renal
CCRF-CEM leukemia = test system: CCRF-CEM leukemia
COLO 205 colon = test system: COLO 205 colon
DU-145 prostate = test system: DU-145 prostate
EKVX NSCLC = test system: EKVX NSCLC
HCC-2998 colon = test system: HCC-2998 colon
HCT-116 colon = test system: HCT-116 colon
HCT-15 colon = test system: HCT-15 colon
HL-60(TB) leukemia = test system: HL-60(TB) leukemia
HOP-62 NSCLC = test system: HOP-62 NSCLC
HS 578T breast = test system: HS 578T breast
HT29 colon = test system: HT29 colon
IGROV1 ovarian = test system: IGROV1 ovarian
K-562 leukemia = test system: K-562 leukemia
KM12 colon = test system: KM12 colon
LOX IMVI melanoma = test system: LOX IMVI melanoma
M14 melanoma = test system: M14 melanoma
MALME-3M melanoma = test system: MALME-3M melanoma
MCF7 breast = test system: MCF7 breast
MDA-MB-231 breast = test system: MDA-MB-231 breast
MDA-MB-435 = test system: MDA-MB-435
MOLT-4 leukemia = test system: MOLT-4 leukemia
NCI-H226 lung = test system: NCI-H226 lung
NCI-H23 lung = test system: NCI-H23 lung
NCI-H460 lung = test system: NCI-H460 lung
NCI-H522 lung = test system: NCI-H522 lung
NCI/ADR-RES ovarian = test system: NCI/ADR-RES ovarian
OVCAR-3 ovarian = test system: OVCAR-3 ovarian
OVCAR-4 ovarian = test system: OVCAR-4 ovarian
OVCAR-5 ovarian = test system: OVCAR-5 ovarian
OVCAR-8 ovarian = test system: OVCAR-8 ovarian
PC-3 prostate = test system: PC-3 prostate
RXF 393 renal = test system: RXF 393 renal
SF-268 CNS = test system: SF-268 CNS
SF-295 CNS = test system: SF-295 CNS
SF-539 CNS = test system: SF-539 CNS
SK-MEL-28 melanoma = test system: SK-MEL-28 melanoma
SK-MEL-5 melanoma = test system: SK-MEL-5 melanoma
SK-OV-3 ovarian = test system: SK-OV-3 ovarian
SN12C renal = test system: SN12C renal
SNB-19 CNS = test system: SNB-19 CNS
SR leukemia = test system: SR leukemia
SW-620 colon = test system: SW-620 colon
T-47D breast = test system: T-47D breast
TK-10 renal = test system: TK-10 renal
U251 CNS = test system: U251 CNS
UACC-257 melanoma = test system: UACC-257 melanoma
UACC-62 melanoma = test system: UACC-62 melanoma
UO-31 renal = test system: UO-31 renal

Compound: COc1ccc(/C=C/C(=O)c2c(O)ccc3c(C)c(C(=O)O)oc23)cc1
- GI50 (786-0 renal): 90.3 µM
- TGI (786-0 renal): > 100 µM
- GI50 (A498 renal): 14.9 µM
- TGI (A498 renal): 67.7 µM
- GI50 (A549 NSCLC): 91.9 µM
- TGI (A549 NSCLC): > 100 µM
- GI50 (ACHN renal): > 100 µM
- TGI (ACHN renal): > 100 µM
- GI50 (BT-549 breast): 73.7 µM
- TGI (BT-549 breast): > 100 µM
- GI50 (CAKI-1 renal): 63.2 µM
- TGI (CAKI-1 renal): > 100 µM
- GI50 (CCRF-CEM leukemia): 40.3 µM
- TGI (CCRF-CEM leukemia): > 100 µM
- GI50 (COLO 205 colon): 63.4 µM
- TGI (COLO 205 colon): > 100 µM
- GI50 (DU-145 prostate): > 100 µM
- TGI (DU-145 prostate): > 100 µM
- GI50 (EKVX NSCLC): > 100 µM
- TGI (EKVX NSCLC): > 100 µM
- GI50 (HCC-2998 colon): 36.7 µM
- TGI (HCC-2998 colon): > 100 µM
- GI50 (HCT-116 colon): 49.2 µM
- TGI (HCT-116 colon): > 100 µM
- GI50 (HCT-15 colon): 28.2 µM
- TGI (HCT-15 colon): > 100 µM
- GI50 (HL-60(TB) leukemia): 35.5 µM
- TGI (HL-60(TB) leukemia): > 100 µM
- GI50 (HOP-62 NSCLC): 89.9 µM
- TGI (HOP-62 NSCLC): > 100 µM
- GI50 (HS 578T breast): 39.7 µM
- TGI (HS 578T breast): > 100 µM
- GI50 (HT29 colon): > 100 µM
- TGI (HT29 colon): > 100 µM
- GI50 (IGROV1 ovarian): > 100 µM
- TGI (IGROV1 ovarian): > 100 µM
- GI50 (K-562 leukemia): 36.2 µM
- TGI (K-562 leukemia): > 100 µM
- GI50 (KM12 colon): > 100 µM
- TGI (KM12 colon): > 100 µM
- GI50 (LOX IMVI melanoma): 35.6 µM
- TGI (LOX IMVI melanoma): > 100 µM
- GI50 (M14 melanoma): > 100 µM
- TGI (M14 melanoma): > 100 µM
- GI50 (MALME-3M melanoma): 94.6 µM
- TGI (MALME-3M melanoma): > 100 µM
- GI50 (MCF7 breast): 28.1 µM
- TGI (MCF7 breast): > 100 µM
- GI50 (MDA-MB-231 breast): 44.7 µM
- TGI (MDA-MB-231 breast): > 100 µM
- GI50 (MDA-MB-435): 50.5 µM
- TGI (MDA-MB-435): > 100 µM
- GI50 (MOLT-4 leukemia): 31 µM
- TGI (MOLT-4 leukemia): > 100 µM
- GI50 (NCI-H226 lung): 45.1 µM
- TGI (NCI-H226 lung): > 100 µM
- GI50 (NCI-H23 lung): 74.2 µM
- TGI (NCI-H23 lung): > 100 µM
- GI50 (NCI-H460 lung): 34 µM
- TGI (NCI-H460 lung): > 100 µM
- GI50 (NCI-H522 lung): 33.9 µM
- TGI (NCI-H522 lung): > 100 µM
- GI50 (NCI/ADR-RES ovarian): 61.9 µM
- TGI (NCI/ADR-RES ovarian): > 100 µM
- GI50 (OVCAR-3 ovarian): 58.3 µM
- TGI (OVCAR-3 ovarian): > 100 µM
- GI50 (OVCAR-4 ovarian): > 100 µM
- TGI (OVCAR-4 ovarian): > 100 µM
- GI50 (OVCAR-5 ovarian): > 100 µM
- TGI (OVCAR-5 ovarian): > 100 µM
- GI50 (OVCAR-8 ovarian): 61.3 µM
- TGI (OVCAR-8 ovarian): > 100 µM
- GI50 (PC-3 prostate): 66 µM
- TGI (PC-3 prostate): > 100 µM
- GI50 (RXF 393 renal): 55.5 µM
- TGI (RXF 393 renal): > 100 µM
- GI50 (SF-268 CNS): 42.3 µM
- TGI (SF-268 CNS): > 100 µM
- GI50 (SF-295 CNS): 35.1 µM
- TGI (SF-295 CNS): > 100 µM
- GI50 (SF-539 CNS): 35.6 µM
- TGI (SF-539 CNS): > 100 µM
- GI50 (SK-MEL-28 melanoma): > 100 µM
- TGI (SK-MEL-28 melanoma): > 100 µM
- GI50 (SK-MEL-5 melanoma): 46.4 µM
- TGI (SK-MEL-5 melanoma): > 100 µM
- GI50 (SK-OV-3 ovarian): > 100 µM
- TGI (SK-OV-3 ovarian): > 100 µM
- GI50 (SN12C renal): 27.5 µM
- TGI (SN12C renal): > 100 µM
- GI50 (SNB-19 CNS): 64.9 µM
- TGI (SNB-19 CNS): > 100 µM
- GI50 (SR leukemia): 19.2 µM
- TGI (SR leukemia): 64.4 µM
- GI50 (SW-620 colon): 56.3 µM
- TGI (SW-620 colon): > 100 µM
- GI50 (T-47D breast): 64.7 µM
- TGI (T-47D breast): > 100 µM
- GI50 (TK-10 renal): > 100 µM
- TGI (TK-10 renal): > 100 µM
- GI50 (U251 CNS): 33.2 µM
- TGI (U251 CNS): > 100 µM
- GI50 (UACC-257 melanoma): 84.9 µM
- TGI (UACC-257 melanoma): > 100 µM
- GI50 (UACC-62 melanoma): 55 µM
- TGI (UACC-62 melanoma): > 100 µM
- GI50 (UO-31 renal): > 100 µM
- TGI (UO-31 renal): > 100 µM
